A short description of the data set: Metabolic stability in rat liver microsomes (RLMs). The conditions noted are these: for TIC value at 0 min: 0 min incubation, Ox (+16)/(+32), deMe (-14)/(-28) = mass adducts (metabolites); for TIC value at 0 min / TIC value at 5 min / TIC value at 15 min / TIC value at 30 min / TIC value at 60 min: LCMS TIC, individual replicates R1-R3, protein 0.5 mg/ml; for TIC value at 5 min: 5 min incubation; for TIC value at 15 min: 15 min incubation; for TIC value at 30 min: 30 min incubation; for TIC value at 60 min: 60 min incubation; for half-life / microsomal CLint: rat, microsomes.

The mark [1] stands for this setting: Half Life Mean, rat liver microsomes, mean of R1-R3.
The mark [2] stands for this setting: Half Life, rat liver microsomes, individual replicates R1-R3.
The mark [3] stands for this setting: Metabolic stability: RLM CL (ul/min/mg), RLMs, mean and SD, three measurements.
Where [4] appears, read: RLM CL Mean, rat liver microsomes, mean of R1-R3.
Setting [5] is: RLM CL, rat liver microsomes, individual replicates R1-R3, incubation volume 400 ul, protein 0.5 mg/ml.
Where [6] appears, read: Half-life (T1/2) in RLMs, 10 μM peptide, 37 °C, mean and s.d. of three measurements.
Setting [7] is: Metabolic stability: Half life T1/2 (min), RLMs, mean and SD, three measurements.

Values joined by “and” are separate entries in the source; they are usually repeats but may differ in a detail not shown here. Equal entries are not always repeated.

The term half-life denotes how long it takes for the measured level to halve. A low value points to fast loss. For orientation: microsomal CLint means the capacity of the preparation to metabolise the compound, expressed as a volume cleared per time. As for `CC(C)[C@@H]1NC(=O)CCSCCS(=O)(=O)CCSCCNC(=O)[C@H](CNC(=O)c2ccco2)NC1=O` [compound 10], for the setting “rat liver microsomes”, the “TIC value at 0 min” value is 5136707 (2×) and 3317301; the “TIC value at 5 min” value is 5335426 and 4509848 and 3329443; the “TIC value at 15 min” value is 4513948 and 3668718 and 2626547; the “TIC value at 30 min” value is 4035558 and 3666920 and 2228136. Also, the “TIC value at 60 min” value (rat liver microsomes) is 3223521 and 2515297 and 2382324. The same compound showed a half-life under setting [1] above 60 min. For the same compound, the half-life under setting [2] is above 60 min. Further, the microsomal CLint under setting [3] was found to be 17.6 ± 2.6 µL/min/mg. This compound also displayed a microsomal CLint under setting [4] of 17.6 µL/min/mg. The microsomal CLint under setting [5] worked out at 15.4 µL/min/mg.

For the compound `O=C(N[C@H]1CSC/C=C\CSCCNC(=O)C2(CC2)CNC(=O)[C@H](CO)NC1=O)c1cccnc1` [peptide 2], where the note is “rat liver microsomes”, the “TIC value at 0 min” value was 4300369 (2×) and 5050392; the “TIC value at 5 min” value is 4094044 and 4040957 and 4614305; the “TIC value at 15 min” value was 4065591 and 3605857 and 4671032; the “TIC value at 30 min” value was 3778445 and 3534653 and 4132452. In addition, for the setting “rat liver microsomes”, the “TIC value at 60 min” value is 3236121 and 3689440 and 3984891. Besides, the half-life under setting [1] was above 60 min. The compound further registered a half-life under setting [2] above 60 min. Under setting [3], this compound registered a microsomal CLint of 10.7 ± 1.9 µL/min/mg. The compound also yielded a microsomal CLint under setting [4] of 10.7 µL/min/mg. This compound had a microsomal CLint under setting [5] of 9.21 µL/min/mg.

With `O=C(Cc1c[nH]c2ccccc12)N[C@H]1CSCCS(=O)(=O)CCSCCNC(=O)C2(CCCC2)NC(=O)[C@@H]2CCCN2C1=O` [compound 5], where the note is “rat liver microsomes”, the “TIC value at 0 min” value was 4100940 (2×) and 3001933; the “TIC value at 5 min” value is 3877569 and 3883518 and 2646636; the “TIC value at 15 min” value is 3731666 and 3678603 and 2895431; the “TIC value at 30 min” value is 3163475 and 3179511 and 2181012. Besides, the “TIC value at 60 min” value (rat liver microsomes) was 2955229 and 3322280 and 1801495. This compound also came in with a half-life under setting [1] above 60 min. Moreover, the half-life under setting [2] is above 60 min. Also, under setting [4], the intrinsic clearance (microsomal CLint) amounted to 14.1 µL/min/mg. Also, under setting [5], the microsomal CLint was found to be 12.6 µL/min/mg.

On to `NC(=O)NCCC[C@@H]1NC(=O)C2CN(CCN2C(=O)C2CCCN2S(=O)(=O)c2ccc(F)cc2)C(=O)CCSC/C=C/CSCCNC1=O` (stereo partly shown) [peptide 4], for which the “TIC value at 0 min” value (rat liver microsomes) was 2209118 (2×) and 1061770. Also, under “rat liver microsomes”, the “TIC value at 5 min” value is 1524575 and 1610332 and 921634. Where the note is “rat liver microsomes”, the “TIC value at 15 min” value was 1519207 and 1327718 and 738514. The “TIC value at 30 min” value (rat liver microsomes) is 1146033 and 1076120 and 486997. Further, the “TIC value at 60 min” value (rat liver microsomes) is 743609 and 590507 and 376829. In addition, the half-life came to 34.6 min under setting [1], 31.2 min under setting [2], 34 ± 4 min under setting [6] and 35 ± 4 min under setting [7]. Also, the microsomal CLint runs as follows: under setting [3], 41 ± 5 µL/min/mg; under setting [4], 40.6 µL/min/mg; under setting [5], 44.4 µL/min/mg.

On to `O=C1CC2CCN(CC2)C(=O)[C@@H](NC(=O)c2cc(F)cc(F)c2)CSCc2ccc(cc2)CSCCNC(=O)[C@H](Cc2ccccc2)N1` [peptide 1], for which the “TIC value at 0 min” value (rat liver microsomes) was 4586491 (2×) and 3645847. The “TIC value at 5 min” value (rat liver microsomes) was 3654952 and 3734486 and 3061802. For the same compound, the “TIC value at 15 min” value (rat liver microsomes) was 1752251 and 2543021 and 981764. The “TIC value at 30 min” value (rat liver microsomes) was 740144 and 790714 and 195334. Also, the “TIC value at 60 min” value (rat liver microsomes) was 105910 and 231909 and 39522. The half-life came to 11.5 min under setting [1], 11.6 min under setting [2], 11 min under setting [6] and 11.5 ± 1.7 min under setting [7]. The microsomal CLint came out at 123 ± 18 µL/min/mg under setting [3], 123 µL/min/mg under setting [4] and 119 µL/min/mg under setting [5].

As to `O=C1C[C@@H]2CCCN2C(=O)[C@@H](NC(=O)c2cccc(Cl)c2)CSCc2cccc(n2)CSCCNC(=O)[C@H](Cc2c[nH]c3ccccc23)N1` [compound 7], where the note is “rat liver microsomes”, the “TIC value at 0 min” value was 3550654 (2×) and 4325681. Also, where the note is “rat liver microsomes”, the “TIC value at 5 min” value is 3349041 and 3673040 and 3817703. For the same compound, under “rat liver microsomes”, the “TIC value at 15 min” value was 2080247 and 3097312 and 2624551. Further, the “TIC value at 30 min” value (rat liver microsomes) was 1705819 and 1909847 and 1817380. Further, the “TIC value at 60 min” value (rat liver microsomes) is 1049135 and 1421730 and 1465716. In addition, the half-life came out at 31.3 min under setting [1], 28.4 min under setting [2], 31 ± 5 min under setting [6] and 31 ± 5 min under setting [7]. Also, the microsomal CLint reads like this: under setting [3], 45 ± 6 µL/min/mg; under setting [4], 45.2 µL/min/mg; under setting [5], 48.8 µL/min/mg.

Turning to `CN1CCC(=O)NCCSCC(=O)CSC[C@H](NC(=O)c2cccc(C(F)(F)F)c2)C(=O)N2CCC[C@@H](C2)C1=O` [compound 8], the “TIC value at 0 min” value (rat liver microsomes) is 6751463 (2×) and 7547988. Where the note is “rat liver microsomes”, the “TIC value at 5 min” value is 6145465 and 6292775 and 6289651. Moreover, where the note is “rat liver microsomes”, the “TIC value at 15 min” value was 3895721 and 6301539 and 5568669. Also, the “TIC value at 30 min” value (rat liver microsomes) was 3369766 and 4709220 and 3894141. Also, under “rat liver microsomes”, the “TIC value at 60 min” value was 1916782 and 2986882 and 2251799. Further, the half-life is, setting by setting: under setting [1], 37.4 min; under setting [2], 28.1 min; under setting [6], 37 ± 10 min; under setting [7], 37 ± 10 min. Further, the intrinsic clearance (microsomal CLint) turned out to be 40 ± 9 µL/min/mg under setting [3], 39.6 µL/min/mg under setting [4] and 49.2 µL/min/mg under setting [5].

With `COc1ccc(CC(=O)N[C@H]2Cc3ccc(cc3)CNC(=O)c3cccc(c3)CNC(=O)CCSCc3ccc(cc3)CSCCNC2=O)cc1OC` [peptide 3], the “TIC value at 0 min” value (rat liver microsomes) is 1629049 (2×) and 1656894. The “TIC value at 5 min” value (rat liver microsomes) is 1396633 and 1109599 and 1416564. Besides, the “TIC value at 15 min” value (rat liver microsomes) is 688706 and 808072 and 696583. Besides, the “TIC value at 30 min” value (rat liver microsomes) was 432016 and 448206 and 497739. The “TIC value at 60 min” value (rat liver microsomes) was 192689 and 235300 and 132050. Also, the half-life reads like this: under setting [1], 16.9 min; under setting [2], 15 min; under setting [6], 16.9 ± 2.5 min; under setting [7], 16.9 ± 2.5 min. The microsomal CLint reads like this: under setting [3], 84 ± 11 µL/min/mg; under setting [4], 83.8 µL/min/mg; under setting [5], 92.5 µL/min/mg.

Turning to `Cn1nccc1C(=O)N1CCC2(CC1)NC(=O)[C@H](CC1CCCCC1)NC(=O)CCSCc1cccc(n1)CSCCNC2=O` [compound 9], the “TIC value at 0 min” value (rat liver microsomes) is 15547492 (2×) and 14631455. Besides, the “TIC value at 5 min” value (rat liver microsomes) was 12759369 and 8856874 and 13246148. Where the note is “rat liver microsomes”, the “TIC value at 15 min” value was 8028101 and 6898172 and 9892349. Also, the “TIC value at 30 min” value (rat liver microsomes) is 4900968 and 4228902 and 5914854. Further, for the setting “rat liver microsomes”, the “TIC value at 60 min” value was 1719220 and 1798352 and 2620253. The half-life was found to be 22.3 min under setting [1], 17.3 min under setting [2], 22 ± 4 min under setting [6] and 22 ± 4 min under setting [7]. The microsomal CLint by setting is: under setting [3], 64 ± 11 µL/min/mg; under setting [4], 64.1 µL/min/mg; under setting [5], 80.2 µL/min/mg.

As to `O=C1CSCCNC(=O)c2ccc(cc2)CNC(=O)[C@@H](NC(=O)C2CCS(=O)(=O)CC2)CCNC(=O)CCSC1` [compound 6], under “rat liver microsomes”, the “TIC value at 0 min” value was 880057 (2×) and 553202; the “TIC value at 5 min” value was 821271 and 965964 and 386285; the “TIC value at 15 min” value was 765281 and 1161804 and 367708; the “TIC value at 30 min” value was 697748 and 898601 and 342582. Besides, where the note is “rat liver microsomes”, the “TIC value at 60 min” value was 664165 and 808479 and 323125. The half-life under setting [2] worked out at 50.6 min. Besides, the microsomal CLint under setting [3] is 16.6 ± 7.6 µL/min/mg. Besides, the microsomal CLint under setting [4] was determined as 16.6 µL/min/mg.

The record behind these values is article PMC11062899, “De novo development of small cyclic peptides that are orally bioavailable” (Nature Chemical Biology, 2023).
